# System: PDC KRAS tumor spheroids with HUVEC/MSC, viability
# Assay: Anticancer human tumor 349418-098-R-PDC patient-derived lung adenocarcinoma cell line growth inhibition [KRAS2]
# Conditions: for IC50: curve of first compound; for viability, T/C: stronger effect = lower value
# Outline: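 KRAS-mutant tumor cells were grown as spheroids with HUVEC endothelial cells and human MSCs as stroma. Targeted agents were tested alone and with KRAS pathway inhibitors. Doses started at or near clinical Cmax, or 10 microM, descending half-log.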
# [1] = second compound 0.1 µM, first compound 0.01 µM
# [2] = second compound 0.1 µM, first compound 0.0316 µM
# [3] = second compound 0.316 µM, first compound 0.01 µM
# [4] = second compound 0.316 µM, first compound 0.0316 µM
# [5] = second compound 1 µM, first compound 0.01 µM
# [6] = second compound 1 µM, first compound 0.0316 µM
# [7] = second compound 3.16 µM, first compound 0.01 µM
# [8] = second compound 3.16 µM, first compound 0.0316 µM
# [9] = second compound 10 µM, first compound 0.01 µM
# [10] = second compound 10 µM, first compound 0.0316 µM
# 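Further: spheroids exposed to compounds for seven days before readout.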
smiles,measurement,setting,value
CC(=O)OC12COC1CC(O)C1(C)C(=O)C(O)C3=C(C)C(OC(=O)C(O)C(NC(=O)OC(C)(C)C)c4ccccc4)CC(O)(C(OC(=O)c4ccccc4)C21)C3(C)C (centres undefined) + C=CC(=O)N1CCN(c2nc(=O)n(-c3c(C)ccnc3C(C)C)c3nc(-c4c(O)cccc4F)c(F)cc23)C(C)C1,IC50,second compound 0.1 µM,< 10 nM
same,IC50,second compound 0.316 µM,< 10 nM
same,IC50,second compound 1 µM,< 10 nM
same,IC50,second compound 3.16 µM,< 10 nM
same,IC50,second compound 10 µM,< 10 nM
same,"viability, T/C",[1],11.3%
same,"viability, T/C",[2],12.3%
same,"viability, T/C","second compound 0.1 µM, first compound 0.1 µM",16%
same,"viability, T/C","second compound 0.1 µM, first compound 0.316 µM",14.9%
same,"viability, T/C","second compound 0.1 µM, first compound 1 µM",24%
same,"viability, T/C","second compound 0.1 µM, first compound 3.16 µM",21.2%
same,"viability, T/C",[3],10.2%
same,"viability, T/C",[4],12.7%
same,"viability, T/C","second compound 0.316 µM, first compound 0.1 µM",16.7%
same,"viability, T/C","second compound 0.316 µM, first compound 0.316 µM",17.9%
same,"viability, T/C","second compound 0.316 µM, first compound 1 µM",18%
same,"viability, T/C","second compound 0.316 µM, first compound 3.16 µM",20.1%
same,"viability, T/C",[5],11.1%
same,"viability, T/C",[6],14.2%
same,"viability, T/C","second compound 1 µM, first compound 0.1 µM",11.6%
same,"viability, T/C","second compound 1 µM, first compound 0.316 µM",14.8%
same,"viability, T/C","second compound 1 µM, first compound 1 µM",20.5%
same,"viability, T/C","second compound 1 µM, first compound 3.16 µM",18.3%
same,"viability, T/C",[7],9.17%
same,"viability, T/C",[8],13.1%
same,"viability, T/C","second compound 3.16 µM, first compound 0.1 µM",13.4%
same,"viability, T/C","second compound 3.16 µM, first compound 0.316 µM",12.6%
same,"viability, T/C","second compound 3.16 µM, first compound 1 µM",15.5%
same,"viability, T/C","second compound 3.16 µM, first compound 3.16 µM",15.9%
same,"viability, T/C",[9],9.5%
same,"viability, T/C",[10],11%
same,"viability, T/C","second compound 10 µM, first compound 0.1 µM",9.81%
same,"viability, T/C","second compound 10 µM, first compound 0.316 µM",9.76%
same,"viability, T/C","second compound 10 µM, first compound 1 µM",11.7%
same,"viability, T/C","second compound 10 µM, first compound 3.16 µM",11.9%
CC1COCCN1c1cc(-c2ccnn2C)c2ccnc(-c3ccn[nH]3)c2n1 (centres undefined),"viability, T/C",compound 0.1 µM,10.9% [middle of 5 runs]
same,"viability, T/C",compound 0.316 µM,6.73% [middle of 5 runs]
same,"viability, T/C",compound 1 µM,5.15% [middle of 5 runs]
same,"viability, T/C",compound 3.16 µM,4.48% [middle of 5 runs]
CC(=O)Nc1cccc(-n2c(=O)n(C3CC3)c(=O)c3c(Nc4ccc(I)cc4F)n(C)c(=O)c(C)c32)c1 + CNCc1ccccc1-c1csc(C(C)Nc2nc(C)nc3cc(OC)c(OC)cc23)c1,IC50,second compound 0.1 µM,< 0.1 nM
same,IC50,second compound 0.316 µM,< 0.1 nM
same,IC50,second compound 1 µM,< 0.1 nM
same,IC50,second compound 3.16 µM,< 0.1 nM
same,IC50,second compound 10 µM,< 0.1 nM
same,"viability, T/C","second compound 0.1 µM, first compound 0.0001 µM",21.2%
same,"viability, T/C","second compound 0.1 µM, first compound 0.000316 µM",12.7%
same,"viability, T/C","second compound 0.1 µM, first compound 0.001 µM",10.5%
same,"viability, T/C","second compound 0.1 µM, first compound 0.00316 µM",9.99%
same,"viability, T/C",[1],8.08%
same,"viability, T/C",[2],5.08%
same,"viability, T/C","second compound 0.316 µM, first compound 0.0001 µM",20.8%
same,"viability, T/C","second compound 0.316 µM, first compound 0.000316 µM",12.2%
same,"viability, T/C","second compound 0.316 µM, first compound 0.001 µM",9.67%
same,"viability, T/C","second compound 0.316 µM, first compound 0.00316 µM",7.39%
same,"viability, T/C",[3],7.29%
same,"viability, T/C",[4],5.28%
same,"viability, T/C","second compound 1 µM, first compound 0.0001 µM",17%
same,"viability, T/C","second compound 1 µM, first compound 0.000316 µM",8.66%
same,"viability, T/C","second compound 1 µM, first compound 0.001 µM",7.27%
same,"viability, T/C","second compound 1 µM, first compound 0.00316 µM",5.84%
same,"viability, T/C",[5],5.69%
same,"viability, T/C",[6],4.51%
same,"viability, T/C","second compound 3.16 µM, first compound 0.0001 µM",0.05%
same,"viability, T/C","second compound 3.16 µM, first compound 0.000316 µM",0.03%
same,"viability, T/C","second compound 3.16 µM, first compound 0.001 µM",0.02%
same,"viability, T/C","second compound 3.16 µM, first compound 0.00316 µM",0.02%
same,"viability, T/C",[7],0.1%
same,"viability, T/C",[8],0.08%
same,"viability, T/C","second compound 10 µM, first compound 0.0001 µM",0.13%
same,"viability, T/C","second compound 10 µM, first compound 0.000316 µM",0.08%
same,"viability, T/C","second compound 10 µM, first compound 0.001 µM",0.07%
same,"viability, T/C","second compound 10 µM, first compound 0.00316 µM",0.07%
same,"viability, T/C",[9],0.08%
same,"viability, T/C",[10],0.13%

# Reference: PubChem BioAssay AID1963866 (Molecular Pharmacology Branch, DTP, NCI, 2024)
